# Residue numbers refer to the chain shown, from its start.
# Legend:
# [1] = target: T1, mTLR9ect (extracellular domain of murine TLR9 fused to human IgG1-Fc) (Mus musculus, UniProt Q9EQU3); assay: SPR biosensor analysis of mTLR9ect binding to immobilized CpG-DNA; conditions: pH 7.4
# T1 construct: mTLR9ect (aa 1-816); made in house
# T1 sequence (Q9EQU3 26-816): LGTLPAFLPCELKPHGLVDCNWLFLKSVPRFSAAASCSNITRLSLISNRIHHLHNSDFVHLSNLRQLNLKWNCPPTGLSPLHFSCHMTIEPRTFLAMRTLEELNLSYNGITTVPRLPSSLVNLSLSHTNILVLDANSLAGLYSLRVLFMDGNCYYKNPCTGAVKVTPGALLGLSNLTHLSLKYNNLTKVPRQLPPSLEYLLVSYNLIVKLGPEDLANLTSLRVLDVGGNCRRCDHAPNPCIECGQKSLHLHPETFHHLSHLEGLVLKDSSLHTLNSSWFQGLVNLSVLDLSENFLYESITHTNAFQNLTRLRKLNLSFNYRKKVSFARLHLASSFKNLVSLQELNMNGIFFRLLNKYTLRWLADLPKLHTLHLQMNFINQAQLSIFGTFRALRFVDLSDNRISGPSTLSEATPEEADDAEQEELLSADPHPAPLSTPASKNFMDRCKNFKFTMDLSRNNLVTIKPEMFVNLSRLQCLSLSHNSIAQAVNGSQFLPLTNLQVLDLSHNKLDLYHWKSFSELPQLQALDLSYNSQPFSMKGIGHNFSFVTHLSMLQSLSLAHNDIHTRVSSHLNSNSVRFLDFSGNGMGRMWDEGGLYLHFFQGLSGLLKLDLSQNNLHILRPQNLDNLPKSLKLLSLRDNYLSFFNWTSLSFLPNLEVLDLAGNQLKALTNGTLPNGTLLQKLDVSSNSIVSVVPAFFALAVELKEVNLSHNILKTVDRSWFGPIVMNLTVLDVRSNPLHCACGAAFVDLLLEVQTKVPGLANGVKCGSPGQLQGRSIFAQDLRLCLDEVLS
# [2] = target: T2, mTLR9ect-mut (D535→A and Y537→A) (Mus musculus, UniProt Q9EQU3, D535A/Y537A); assay: SPR biosensor analysis of double mutated mTLR9ect-mut on CpG-DNA; format: binding, murine; conditions: 200 nM protein, compared to wild-type mTLR9ect
# T2 construct: mTLR9ect-mut (see below) (aa 1-816); made in house
# T2 sequence (Q9EQU3 26-816 D535A/Y537A): T1 sequence (Q9EQU3 26-816) with D510A, Y512A
# Experimental: FIG. 3B is a graph depicting SPR biosensor analysis of wild-type and double mutated mTLR9ect (mTLR9ect-mut, D535→A and Y537→A). Proteins were injected at 200 nM on sensor chips with immobilized CpG- and non-CpG-DNA and the sensorgrams recorded.
# Mutation. For mutation of wild-type mTLR9 amino acids D535 and Y537 to two alanines, the primers 5′-[…]-3′ (SEQ ID NO:5) and 5′-[…]-3′ (SEQ ID NO:6) were used to generate mTLR9-mut. A site-specific-mutagenesis kit from Stratagene (Amsterdam, Netherlands) was applied according to the manufacturer's protocol. All PCR fragments were sequenced and found error-free.
# SPR biosensor analysis. Real-time binding of TLR9 or TLR2 was measured by surface plasmon resonance biosensor technology using the BiaCore X system (Uppsala, Sweden). For analysis of TLR9 and TLR2 interaction, biotinylated CpG-DNA and non-CpG-DNA, or biotinylated Pam3CysK4 and PHCK4, respectively, were loaded in running buffer (50 mM MES, 150 mM NaCl, 1 mM MgCl2 at pH 6.5) on SA chips precoated with streptavidin (Biacore AB, Uppsala, Sweden). Non-CpG-DNA or PHCK4 (Wiesmuller K H et al. (1989) Vaccine 7:29-33) served as reference for CpG-DNA and Pam3CysK4 interaction (structure or sequence in Table 1). […] Binding was measured at 25° C. for 750 s (delay time 300 s). […] Sensorgrams were recorded and kinetic data were calculated by the BiaCore Evaluation program (Biacore, version 3.0.1). […]
substance,measurement,setting,value
"5′-TCCATGACGTTCCTGATGCT-3′ (chemistry not given here) [CpG-DNA 1668, synthetic CpG oligodeoxynucleotide, TLR9 ligand]",TLR9 binding to CpG-DNA,[1],weak
same,dissociation of TLR9 from CpG-DNA,[1],fairly rapidly
same,binding of mTLR9ect-mut to CpG-DNA,[2],bound only weakly
